Patent US20080171737A1 (Wyeth, priority 2006, published 2008)
Where a name gives a salt, the structure may show the parent alone.

Molecular target: T1, human hNET (Homo sapiens, UniProt P23975)
T1 construct: expressed in transfected cells; host or cells: MDCK-Net6 (MDCK cells stably transfected with hNET)
Experiment: Functional norepinephrine reuptake assay, Procedure B (6,000 cells/well)
Format: cell-based
Settings: MDCK-Net6 cells, 6,000 cells/well, 16 nM 3H-norepinephrine; read-out: Procedure B hNET uptake IC50
Procedure, shortened: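 MDCK cells stably expressing human NET, 6,000 cells/well, in HEPES-buffered saline pH 7.4 with ascorbic acid and 1 μM pargyline; compound preincubated 5 min at 37° C. ^3H norepinephrine uptake counted by scintillation; non-specific defined with 20 μM desipramine. IC50 from variable-slope sigmoidal nonlinear fit.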

T1 sequence (P23975 whole entry): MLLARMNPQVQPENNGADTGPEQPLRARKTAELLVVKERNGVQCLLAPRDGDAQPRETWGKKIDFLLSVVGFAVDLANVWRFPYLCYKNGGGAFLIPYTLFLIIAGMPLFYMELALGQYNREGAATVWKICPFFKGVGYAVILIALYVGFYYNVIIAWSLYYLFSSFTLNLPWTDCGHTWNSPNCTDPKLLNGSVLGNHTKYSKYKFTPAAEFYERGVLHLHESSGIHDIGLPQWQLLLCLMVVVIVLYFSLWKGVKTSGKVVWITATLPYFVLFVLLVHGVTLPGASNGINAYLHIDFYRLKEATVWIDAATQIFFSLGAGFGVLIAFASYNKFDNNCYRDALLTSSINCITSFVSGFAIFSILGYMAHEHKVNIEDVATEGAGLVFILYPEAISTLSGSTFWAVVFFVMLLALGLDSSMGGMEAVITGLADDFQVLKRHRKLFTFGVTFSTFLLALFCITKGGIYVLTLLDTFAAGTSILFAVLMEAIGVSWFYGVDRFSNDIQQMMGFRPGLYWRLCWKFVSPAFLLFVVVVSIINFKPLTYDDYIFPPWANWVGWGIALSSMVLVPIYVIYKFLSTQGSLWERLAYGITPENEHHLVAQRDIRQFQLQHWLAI

SMILES	IC50 [nM]
CNCCCC1Oc2ccccc2N(c2ccccc2)S1(=O)=O (stereo not drawn) [Example 12, 3-(2,2-dioxido-1-phenyl-1H-4,2,1-benzoxathiazin-3-yl)-N-methylpropan-1-amine]	0.7
CNCCCC1Cc2ccccc2N(c2ccccc2)S1(=O)=O (stereo not drawn) [Example 1, 3-(2,2-dioxido-1-phenyl-3,4-dihydro-1H-2,1-benzothiazin-3-yl)-N-methylpropan-1-amine]	18.5
CNCCC[C@@H]1Cc2cc(F)ccc2N(c2ccccc2OC)S1(=O)=O (single isomer, unassigned) [Example 168]	341
CNCCC[C@@H]1Cc2ccccc2N(c2ccc(F)cc2F)S1(=O)=O (single isomer, unassigned) [Example 101]	49
CNCCCC1Oc2cc3ccccc3cc2N(c2ccc(C)cc2)S1(=O)=O (stereo not drawn) [Example 69, N-methyl-3-[1-(4-methylphenyl)-2,2-dioxido-1H-naphtho[2,3-e][1,3,4]oxathiazin-3-yl]propan-1-amine Hydrochloride]	733

Molecular target: T1, human hNET
Experiment: Functional norepinephrine reuptake assay, Procedure A (50,000 cells/well)
Format: cell-based
Settings: MDCK-Net6 cells, 50,000 cells/well, 16 nM 3H-norepinephrine; read-out: Procecedure A NE Uptake IC50
Description: For screening, 25 μl aliquots of compound solution at a 1 μM or 10 μM final concentration was delivered directly to cells.
For IC50 determinations, stock compounds were prepared at 10 mM from powder. The stock solution was diluted according to compound testing range. Typically, the compound testing range was from 6 nM to 6 μM by half log dilutions. On the day of assay, 25 μl of compound solution at the specified concentrations were added to the plates containing cells. A DMSO stock of desipramine was prepared at 10 mM in DMSO and diluted for a final concentration of 20 μM to determine the non-specific reuptake.
MDCK-Net6 cells, stably transfected with human hNET (Pacholczyk, 1991), were maintained in growth media [high glucose DMEM (Gibco Cat. 11995), 10% FBS (dialyzed, heat-inactivated, Sigma, dialysed, heat inactivated, Lot# K0922 or equivalent) 1xPen/Strep, and 500 μg/ml G418 (Gibco Cat. 10131)]. Cells were plated at 300,000/T75 flask and cells split twice weekly.
Cells were plated at 50,000 cells/well (Procedure A) or 6,000 cells/well (Procedure B) on day 1 in BD Falcon Microtest 96-well sterile cell culture plates, Optilux White/Clear Bottom TC plate (VWR; # 62406-466 or equivalent) in growth media and maintained in a cell incubator (37° C., 5% CO2). On Day 2, cells were removed from the cell incubator and the growth media is replaced by 200 μl of assay buffer (25 mm HEPES 120 mM NaCL; 5 mM KCl; 2.5 mM CaCl2; 1.2 mM MgSO4; 2 mg/ml glucose (pH 7.4, 37° C.)) containing 0.2 mg/ml ascorbic acid and 1 μM parglyine. For screening, 25 μl of compound in 4% DMSO was added directly to each well and the plate was incubated for 5 minutes (37° C.). To initiate the norepinephrine reuptake, 16 nM (final concentration) of ^3H norepinephrine (specific activity; 40-80 Ci/mmol) in assay buffer was delivered in 25 μl aliquots to each well, and the plates were incubated for 5 min at 37° C. The reaction is aspirated from the plate and the cells washed with 250 μl of 50 mM Tris Buffer (4° C.). The plates were left to dry for 1 hour. The cells were lysed using 0.25 M NaOH solution then placed on a shake table and vigorously shaken for 10 minutes. After cell lysis, 100 μl of Microscint 20 (PerkinElmer; #87-051101) was added to the plates and the plates were sealed with film tape and replaced on the shake table for a minimum of 10 minutes. The plates were counted in a TopCount counter (PerkinElmer).
For screening single point determinations, each compound plate contained at least 3 control wells (maximum NE reuptake determinant) and 3 non-specific wells determined by adding 20 μM of desipramine (minimum NE reuptake determinant). Determination of active compounds was calculated using a Microsoft Excel spread sheet applying the following formula:
% inhibition=[1−((mean cpm test compound wells−mean cpm non-specific wells)/(mean cpm control wells−mean cpm non-specific wells))]×100
For IC50 determination, raw cpm values were generated in a data file from the TopCount counter. The data was organized using the Microsoft Excel and transferred into PRIZM graphing and statistical program, which calculated the estimated IC50 value. Calculation of IC50 values was made using non-linear regression analysis with a sigmoidal dose response with variable slope. The statistical program used wells containing ^3H norepinephrine only as the maximal NE reuptake determinant and wells containing ^3H norepinephrine plus 20 μM desipramine (AHR-9543) as the minimal NE reuptake determinant (non-specific determinant). Estimation of the IC50 value was completed on a log scale and the line was fit between the maximal and minimal NE reuptake values.

SMILES	IC50 [nM]
O=S1(=O)C(CCCNCc2ccccc2)Cc2ccccc2N1c1ccccc1 (stereo not drawn) [Example 7, N-benzyl-3-(2,2-dioxido-1-phenyl-3,4-dihydro-1H-2,1-benzothiazin-3-yl)propan-1-amine]	3010
NCCCC1Cc2ccccc2N(c2ccccc2)S1(=O)=O (stereo not drawn) [Example 2, 3-(2,2-dioxido-1-phenyl-3,4-dihydro-1H-2,1-benzothiazin-3-yl)propan-1-amine]	233
CNCCCC1Oc2ccccc2N(c2ccccc2)S1(=O)=O (stereo not drawn) [Example 12, 3-(2,2-dioxido-1-phenyl-1H-4,2,1-benzoxathiazin-3-yl)-N-methylpropan-1-amine]	33.1
CNCCCC1Cc2ccccc2N(c2ccccc2)S1(=O)=O (stereo not drawn) [Example 1, 3-(2,2-dioxido-1-phenyl-3,4-dihydro-1H-2,1-benzothiazin-3-yl)-N-methylpropan-1-amine]	33.5
CCNCCCC1Cc2ccccc2N(c2ccccc2)S1(=O)=O (stereo not drawn) [Example 4, 3-(2,2-dioxido-1-phenyl-3,4-dihydro-1H-2,1-benzothiazin-3-yl)-N-ethylpropan-1-amine]	1880
CN(C)CCCC1Cc2ccccc2N(c2ccccc2)S1(=O)=O (stereo not drawn) [Example 3, 3-(2,2-dioxido-1-phenyl-3,4-dihydro-1H-2,1-benzothiazin-3-yl)-N,N dimethylpropan-1-amine]	484
CC(C)NCCCC1Cc2ccccc2N(c2ccccc2)S1(=O)=O (stereo not drawn) [Example 5, 3-(2,2-dioxido-1-phenyl-3,4-dihydro-1H-2,1-benzothiazin-3-yl)-N-isopropyl propan-1-amine]	166
O=S1(=O)C(CCCN2CCCC2)Cc2ccccc2N1c1ccccc1 (stereo not drawn) [Example 6, 1-phenyl-3-(3-pyrrolidin-1-ylpropyl)-3,4-dihydro-1H-2,1-benzothiazine 2,2-dioxide]	133
CNCCC[C@]1(C)Cc2ccccc2N(c2ccccc2)S1(=O)=O (single isomer, unassigned) [Example 9]	113

Same assay, conditions: MDCK-Net6 cells, 50,000 cells/well; Conc 2000 nM

SMILES	Procedure A [3H] NE Uptake Displacement % [%]
O=S1(=O)C(CCCNC2CCCCC2)Cc2ccccc2N1c1ccccc1 (stereo not drawn) [Example 8, N-[3-(2,2-dioxido-1-phenyl-3,4-dihydro-1H-2,1-benzothiazin-3-yl)propyl]cyclohexanamine]	17
